The source of these data is patent US20070049593A1 (priority 2004, published 2007).

pIC50: −log10 of the molar value. Structures can show the parent of a compound that is named as a salt.

T1 sequence (P26663 2420-2963): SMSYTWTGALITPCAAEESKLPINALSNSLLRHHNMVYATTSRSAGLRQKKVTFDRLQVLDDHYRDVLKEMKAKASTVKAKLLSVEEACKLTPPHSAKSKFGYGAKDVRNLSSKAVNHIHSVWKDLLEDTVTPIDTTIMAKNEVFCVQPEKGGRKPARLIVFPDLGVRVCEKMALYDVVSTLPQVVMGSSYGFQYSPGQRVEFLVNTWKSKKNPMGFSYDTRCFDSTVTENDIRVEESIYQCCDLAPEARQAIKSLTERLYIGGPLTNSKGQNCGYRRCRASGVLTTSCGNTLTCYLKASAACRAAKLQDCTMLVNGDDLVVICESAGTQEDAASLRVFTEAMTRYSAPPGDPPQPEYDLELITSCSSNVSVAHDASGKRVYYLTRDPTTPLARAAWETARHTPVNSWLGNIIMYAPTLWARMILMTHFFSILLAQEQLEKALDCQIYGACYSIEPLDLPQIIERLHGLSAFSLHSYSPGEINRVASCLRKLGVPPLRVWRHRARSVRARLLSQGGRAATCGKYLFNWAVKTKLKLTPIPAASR

One assay has as its target T1, HCV polymerase (Hepatitis C virus genotype 1b, UniProt P26663).
T1 construct: a region encoding NS5B (J Virol 1991 March, 65(3), 1105-13, 544 amino acids after deletion of 47 amino acids on the C-terminal); 6xHis (C); made in house; host or cells: Escherichia coli
As to the kind of experiment: biochemical. Details: species or system HCV BK strain.
Conditions: not given
The essentials:
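Recombinant HCV BK-strain NS5B (C-terminal 47 aa deleted, His6-tagged, E. coli), 0.5 μg/ml, run with 5 μg/ml in vitro-transcribed RNA template (polyU/3′X), ATP/GTP/CTP 50 μM, UTP 2 μM plus [3H]UTP, pH 7.5, 25° C, 90 min. TCA-precipitated RNA counted by scintillation; IC50 from activity with vs without compound.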
On to `CCN(CC)CCCN1CCn2c(c(C3CCCCC3)c3ccc(C(=O)O)cc32)-c2ccc(C)cc21` [Example 1-378, 13-cyclohexyl-5-(3-diethylaminopropyl)-3-methyl-6,7-dihydro-5H-benzo[5,6][1,4]diazepino[7,1-a]indole-10-carboxylic acid dihydrochloride], for which the pIC50 is over 7.00. Same read-out and setting: the value for `O=C(O)c1ccc2c(C3CCCCC3)c3n(c2c1)CCN(CCC1CCCN(C2CCCCC2)C1)c1cc(Cl)ccc1-3` (stereo not shown) [Example 1-379, 3-chloro-13-cyclohexyl-5-[2-(1-cyclohexylpiperidin-3-yl)ethyl]-6,7-dihydro-5H-benzo[5,6][1,4]diazepino[7,1-a]indole-10-carboxylic acid dihydrochloride] was over 7.00; that for `Cc1ccc2c(c1)N(CCC1CCCN(C3CCCC3)C1)CCn1c-2c(C2CCCCC2)c2ccc(C(=O)O)cc21` (stereo not shown) [Example 1-380, 13-cyclohexyl-5-[2-(1-cyclopentylpiperidin-3-yl)ethyl]-3-methyl-6,7-dihydro-5H-benzo[5,6][1,4]diazepino[7,1-a]indole-10-carboxylic acid dihydrochloride] was over 7.00; that for `CC(C)c1ccc2c(c1)N(CCC1CCCN(C(C)C)C1)CCn1c-2c(C2CCCCC2)c2ccc(C(=O)O)cc21` (stereo not shown) [Example 1-381, 13-cyclohexyl-3-isopropyl-5-[2-(1-isopropylpiperidin-3-yl)ethyl]-6,7-dihydro-5H-benzo[5,6][1,4]diazepino[7,1-a]indole-10-carboxylic acid dihydrochloride] was over 7.00.

On to `CCC1CCN(CCN2CCn3c(c(C4CCCCC4)c4ccc(C(=O)O)cc43)-c3ccccc32)C1` (stereo not shown) [Example 1-382, 13-cyclohexyl-5-[2-(3-ethylpyrrolidin-1-yl)ethyl]-6,7-dihydro-5H-benzo[5,6][1,4]diazepino[7,1-a]indole-10-carboxylic acid dihydrochloride], for which the pIC50 is over 7.00. On to `CCC1CCN(CCN2CCn3c(c(C4CCCCC4)c4ccc(C(=O)O)cc43)-c3ccc(Cl)cc32)C1` (stereo not shown) [Example 1-383, 3-chloro-13-cyclohexyl-5-[2-(3-ethylpyrrolidin-1-yl)ethyl]-6,7-dihydro-5H-benzo[5,6][1,4]diazepino[7,1-a]indole-10-carboxylic acid dihydrochloride], for which the negative-log IC50 (pIC50) is over 7.00. `CCC1CCN(CCN2CCn3c(c(C4CCCCC4)c4ccc(C(=O)O)cc43)-c3ccc(C)cc32)C1` (stereo not shown) [Example 1-384, 13-cyclohexyl-5-[2-(3-ethylpyrrolidin-1-yl)ethyl]-3-methyl-6,7-dihydro-5H-benzo[5,6][1,4]diazepino[7,1-a]indole-10-carboxylic acid dihydrochloride] had a pIC50 of over 7.00.

As to `CC(C)COc1ccc2c(c1)N(CCC1CCCN(C(C)C)C1)CCn1c-2c(C2CCCCC2)c2ccc(C(=O)O)cc21` (stereo not shown) [Example 1-385, 13-cyclohexyl-3-isobutoxy-5-[2-(1-isopropylpiperidin-3-yl)ethyl]-6,7-dihydro-5H-benzo[5,6][1,4]diazepino[7,1-a]indole-10-carboxylic acid dihydrochloride], the negative-log IC50 (pIC50) is over 7.00. The same measure, in the same setting: the value for `CCC(CC)N1CCCC(CCN2CCn3c(c(C4CCCCC4)c4ccc(C(=O)O)cc43)-c3ccc(Cl)cc32)C1` (stereo not shown) [Example 1-386, 3-chloro-13-cyclohexyl-5-{2-[1-(1-ethylpropyl)piperidin-3-yl]ethyl}-6,7-dihydro-5H-benzo[5,6][1,4]diazepino[7,1-a]indole-10-carboxylic acid dihydrochloride] was over 7.00. The same measure, in the same setting: the value for `CCOCC1CCCN(CCN2CCn3c(c(C4CCCCC4)c4ccc(C(=O)O)cc43)-c3ccccc32)C1` (stereo not shown) [Example 1-387, 13-cyclohexyl-5-[2-(3-ethoxymethylpiperidin-1-yl)ethyl]-6,7-dihydro-5H-benzo[5,6][1,4]diazepino[7,1-a]indole-10-carboxylic acid dihydrochloride] was over 7.00.

Regarding `COCC1CCCN(CCN2CCn3c(c(C4CCCC4)c4ccc(C(=O)O)cc43)-c3ccc(Cl)cc32)C1` (stereo not shown) [Example 1-390, 3-chloro-13-cyclopentyl-5-[2-(3-methoxymethylpiperidin-1-yl)ethyl]-6,7-dihydro-5H-benzo[5,6][1,4]diazepino[7,1-a]indole-10-carboxylic acid], the pIC50 was over 7.00. On the same count and under the same terms, the value for `CCOCC1CCCN(CCN2CCn3c(c(C4CCCCC4)c4ccc(C(=O)O)cc43)-c3ccc(Cl)cc32)C1` (stereo not shown) [Example 1-391, 3-chloro-13-cyclohexyl-5-[2-(3-ethoxymethylpiperidin-1-yl)ethyl]-6,7-dihydro-5H-benzo[5,6][1,4]diazepino[7,1-a]indole-10-carboxylic acid dihydrochloride] was over 7.00. Same read-out and setting: the value for `CCOCC1CCCN(CCN2CCn3c(c(C4CCCCC4)c4ccc(C(=O)O)cc43)-c3ccc(C)cc32)C1` (stereo not shown) [Example 1-392, 13-cyclohexyl-5-[2-(3-ethoxymethylpiperidin-1-yl)ethyl]-3-methyl-6,7-dihydro-5H-benzo[5,6][1,4]diazepino[7,1-a]indole-10-carboxylic acid dihydrochloride] was over 7.00.

For the molecule `CC(C)OC1CCCN(CCN2CCn3c(c(C4CCCCC4)c4ccc(C(=O)O)cc43)-c3ccc(Cl)cc32)C1` (stereo not shown) [Example 1-393, 3-chloro-13-cyclohexyl-5-[2-(3-isopropoxypiperidin-1-yl)ethyl]-6,7-dihydro-5H-benzo[5,6][1,4]diazepino[7,1-a]indole-10-carboxylic acid monohydrochloride], the pIC50 was over 7.00. Molecule `Cc1ccc2c(c1)N(CCN1CCCC(OC(C)C)C1)CCn1c-2c(C2CCCCC2)c2ccc(C(=O)O)cc21` (stereo not shown) [Example 1-394, 13-cyclohexyl-5-[2-(3-isopropoxypiperidin-1-yl)ethyl]-3-methyl-6,7-dihydro-5H-benzo[5,6][1,4]diazepino[7,1-a]indole-10-carboxylic acid monohydrochloride] gave a pIC50 of over 7.00.

Consider `CC(C)OC1CCCN(CCN2CCn3c(c(C4CCCCC4)c4ccc(C(=O)O)cc43)-c3ccccc32)C1` (stereo not shown) [Example 1-395, 13-cyclohexyl-5-[2-(3-isopropoxypiperidin-1-yl)ethyl]-6,7-dihydro-5H-benzo[5,6][1,4]diazepino[7,1-a]indole-10-carboxylic acid monohydrochloride], for which the pIC50 is over 7.00.

In the case of `CC(C)N1CCCC(CCCN2CCn3c(c(C4CCCCC4)c4ccc(C(=O)O)cc43)-c3ccc(Cl)cc32)C1` (stereo not shown) [Example 1-396, 3-chloro-13-cyclohexyl-5-[3-(1-isopropylpiperidin-3-yl)propyl]-6,7-dihydro-5H-benzo[5,6][1,4]diazepino[7,1-a]indole-10-carboxylic acid dihydrochloride], the pIC50 was over 7.00. The same measure, in the same setting: the value for `COCC[C@@H]1CCCN(CCN2CCn3c(c(C4CCCCC4)c4ccc(C(=O)O)cc43)-c3ccc(Cl)cc32)C1` [Example 1-397, 3-chloro-13-cyclohexyl-5-{2-[(S)-3-(2-methoxyethyl)piperidin-1-yl]ethyl}-6,7-dihydro-5H-benzo[5,6][1,4]diazepino[7,1-a]indole-10-carboxylic acid dihydrochloride] was over 7.00; that for `COCC[C@H]1CCCN(CCN2CCn3c(c(C4CCCCC4)c4ccc(C(=O)O)cc43)-c3ccc(Cl)cc32)C1` [Example 1-398, 3-chloro-13-cyclohexyl-5-{2-[(R)-3-(2-methoxyethyl)piperidin-1-yl]ethyl}-6,7-dihydro-5H-benzo[5,6][1,4]diazepino[7,1-a]indole-10-carboxylic acid dihydrochloride] was over 7.00; that for `O=C(O)c1ccc2c(C3CCCC3)c3n(c2c1)CCN(CCN1CCCCC1)c1ccccc1-3` [Example 1-399, 13-cyclopentyl-5-[2-(piperidin-1-yl)ethyl]-6,7-dihydro-5H-benzo[5,6][1,4]diazepino[7,1-a]indole-10-carboxylic acid monohydrochloride] was over 7.00.

As for `CCN1CCCC(OCCN2CCn3c(c(C4CCCCC4)c4ccc(C(=O)O)cc43)-c3ccc(Cl)cc32)C1` (stereo not shown) [Example 1-400, 3-chloro-13-cyclohexyl-5-[2-(1-ethylpiperidin-3-yloxy)ethyl]-6,7-dihydro-5H-benzo[5,6][1,4]diazepino[7,1-a]indole-10-carboxylic acid dihydrochloride], the pIC50 is over 7.00.

On to `Cc1nc(COc2ccc3c(c2)N(CCN2CCCCC2)CCn2c-3c(C3CCCCC3)c3ccc(C(=O)O)cc32)cs1` [Example 1-401, 13-cyclohexyl-3-(2-methylthiazol-4-ylmethoxy)-5-[2-(piperidin-1-yl)ethyl]-6,7-dihydro-5H-benzo[5,6][1,4]diazepino[7,1-a]indole-10-carboxylic acid dihydrochloride], for which the pIC50 is over 7.00. Same read-out and setting: the value for `Cc1nc(C)c(COc2ccc3c(c2)N(CCN2CCCCC2)CCn2c-3c(C3CCCCC3)c3ccc(C(=O)O)cc32)s1` [Example 1-402, 13-cyclohexyl-3-(2,4-dimethylthiazol-5-ylmethoxy)-5-[2-(piperidin-1-yl)ethyl]-6,7-dihydro-5H-benzo[5,6][1,4]diazepino[7,1-a]indole-10-carboxylic acid dihydrochloride] was over 7.00; that for `CCN(CCCN1CCn2c(c(C3CCCCC3)c3ccc(C(=O)O)cc32)-c2ccc(Cl)cc21)C(C)C` [Example 1-403, 3-chloro-13-cyclohexyl-5-[3-(N-ethyl-N-isopropylamino)propyl]-6,7-dihydro-5H-benzo[5,6][1,4]diazepino[7,1-a]indole-10-carboxylic acid dihydrochloride] was over 7.00.

Still in this assay, the particulars now being: 25° C., 90 min; [5,6-3H]UTP incorporation into RNA; read-out: HCV polymerase inhibitory activity IC50.
As to `CCC1CCCN(CCN2CCn3c(c(C4CCCC4)c4ccc(C(=O)O)cc43)-c3ccc(Cl)cc32)C1` (stereo not shown) [Example 1-389, 3-chloro-13-cyclopentyl-5-[2-(3-ethylpiperidin-1-yl)ethyl]-6,7-dihydro-5H-benzo[5,6][1,4]diazepino[7,1-a]indole-10-carboxylic acid], the pIC50 was over 7.00.

Broadly, the pIC50 is the IC50 on a negative log10 scale, so that one unit is a factor of ten.
